In data set [1] the test system is mCherry expressing C. trachomatis serovar L2 454/Bu. The experiment in a line: Primary screen of natural compound library, Chlamydia inclusion count (mCherry imaging and FITC immunostaining in duplicate plates). The data set is classed as cell-based, Chlamydia trachomatis. The conditions noted are these: for inhibition at 10 µM: Chlamydia trachomatis, 48 hpi, HeLa cells, vs DMSO control. The protocol:
A general and more detailed protocol for the screening assay is provided in (Supplementary Data Sheet 1) and an overview of the screening method is given in Figure 3. Since inhalation of C. trachomatis aerosols can cause laboratory acquired infections (Sewell, [1995]), all procedures involving handling of live infection in open plates were performed manually inside a class II safety cabinet using 8-channel electronic pipets (Rainin E4 XLS, Mettler Toledo, Barcelona, Spain) and an enclosed aspiration system (Intergra VacuSafe, Zizers, Switzerland).
The primary screen of the 349 open access compound library was performed using the mCherry expressing C. trachomatis serovar L2 454/Bu in clear, flat 96-well plates (Nunc, Delta surface, Thermo Fischer Scientific). The primary screen was done in duplicates in separated plates; one plate was used for mCherry imaging and the other for FITC immunostaining. Cells were seeded at a density of 10,000 cells per well in 100 μl DMEM media 1 day prior to infection in culture media. Chlamydia infection was performed in 30 μl HBSS as described above with a MOI of 0.6 during 1 h at 37°C, 5% CO2. Compounds were diluted to 10 μM in DMEM with a final DMSO concentration of 0.5% and 100 μl per well was added after aspiration of HBSS. The plates were incubated for an additional 47 h at 37°C, 5% CO2 prior to imaging. One of the duplicate plates was used for mCherry imaging and one for FITC immunostaining. For mCherry imaging, HeLa cell nuclei were first stained by addition of 10 μl […] Hoechst per well and incubated at 37°C with 5% CO2 for 20 min. The infected cells were fixed in 4% paraformaldehyde (PFA) for 15 min and washed in PBS before image acquisition. Although fixation was not necessary for the analysis, it inactivated the infectious Chlamydia and enabled later analysis after storage at 4°C. For FITC immunostaining, cells were fixed in 150 μl methanol per well for 10 min, blocked in 1% BSA, 0.25% Tween-20 in PBS and incubated with 1:1,000 polyclonal rabbit anti-chlamydial serum in blocking buffer (Marwaha et al., [2014]). A FITC-conjugated donkey anti-rabbit antibody (Jackson ImmunoResearch) and 1 μg/ml Hoechst staining was used for staining followed by washing with blocking buffer. Images of nuclei (Hoechst-ex386/23 nm) and Chlamydia inclusions (FITC: ex485/20 nm; mCherry: ex549/15 nm) were acquired in the ArrayScan with the 10x objective and counted with the built in software. Chlamydia inclusions in DMSO control wells were used to determine an inclusion size cutoff to exclude small underdeveloped inclusions as well as fluorescent artifacts from the analyses.

A further data set in a line: in vitro. The data set is classed as cell-based. To be noted: human, 48 h, percent of DMSO control; for viability at 25 µM: read-out: HeLa cell viability at 25 μM (%); for viability at 50 µM: read-out: HeLa cell viability at 50 μM (%) (converted). As to the method: (§1) HeLa299 cells were inoculated into clear, flat 96-well plates (Nunc, Delta surface, Thermo Fischer Scientific) with a density of 7,000 cells per well and cultured overnight at 37°C with 5% CO2 in […] supplemented with 10% FBS and 2 mM L-glutamine. The following day, the RPMI was replaced with DMEM without phenol red (Life Technologies, Carlsbad, CA, USA) containing 0.5% DMSO with or without test compounds at 25 and 50 μM concentrations incubated at 37°C with 5% CO2 for 48 h. At least three replicate wells for each compound concentration were tested. Wells without cells were used as blank controls. Following this incubation with compounds, cells were washed with DMEM to remove remaining colored compounds and fresh DMEM without phenol red was added before the XTT Cell Proliferation Assay kit was used according to the manufacturer's instructions (ATCC, Manassas, VA, USA). Briefly, activation reagent and XTT reagent were thawed at 37°C, then mixed in a 1:50 ratio with enough volume to add 50 μL to each well. The plates were placed in the 37°C incubator for 2.5 h. The absorbance of each well was then read at 475 nm and 660 nm with a Tecan Infinite m200 plate reader (Tecan, Männedorf, Switzerland). To analyze the data, the 660 nm reading was subtracted from the 475 nm reading to help eliminate non-specific readings from the assay results. Average blank control-well readings were subtracted from those containing cells. Final readings from wells containing compound were compared to DMSO control wells and expressed as percent of control.

For a further data set, the system named is HeLa cells. The experiment in a line: in vitro. The data set is classed as cell-based. As to the method:
as §1

The test system of another data set is Staphylococcus aureus. The conditions noted are these: ref Beattie et al., 2016; cited from earlier work.
In data set [2] the test system is Plasmodium falciparum parasites. The conditions noted are these: antimalarial activity; ref Choomuenwai et al., 2012; cited from earlier work.
In the next data set the test system is mammalian cells. To be noted: cited from earlier work.
The subject of the next data set is wt C. trachomatis. The data set is described as follows: Doxycycline susceptibility, large inclusion count after immunostaining. The data set is classed as cell-based. To be noted: Chlamydia trachomatis; wt strain, HeLa cells, 48 h, FITC immunostaining; read-out: EC50 with 95% confidence interval.
Data set [3] deals with mCherry expressing C. trachomatis. The experiment in a line: Doxycycline susceptibility, large inclusion count by live mCherry imaging. Type of data set: cell-based. The conditions noted are these: Chlamydia trachomatis, HeLa, 48 h, read-out: EC50 with 95% confidence interval. The protocol:
HeLa 299 cells, cultured to 70% confluence were harvested and seeded into 96-well plates (clear, flat, Nunclon Delta coated, Nunc, Thermo Fischer Scientific, Waltham, MA, USA) at a density of 10,000 per well in culture media (DMEM or RPMI 1640 supplemented with 10% FBS, 2 mM L-glutamine and 50 μg/ml gentamicin). After overnight incubation in 37°C with 5% CO2, adherent cells were infected with 30 μl mCherry expressing Chlamydia per well in HBSS with a multiplicity of infection (MOI) of 0.6. Chlamydia were incubated with the cells for 1 h at 37°C with 5% CO2 after which HBSS was removed and replaced with 100 μl culture media. DNA of host cell nuclei and Chlamydia inclusions were visualized by addition of 10 μl 10 μg/ml Hoechst 20 min prior to imaging. Live images were acquired 48 hpi in an automated HCS microscope (ArrayScan VTI, Thermo Fischer Scientific) using the 10x objective, excitation 549/15 nm for mCherry and excitation 386/23 nm for Hoechst. The number of large Chlamydia inclusions was enumerated using the built in software. An inclusion size cutoff was determined based on the 48 hpi Chlamydia inclusions to include normally developed Chlamydia inclusions and exclude fluorescent artifacts from the analyses. […] Large inclusions were counted by Arrayscan and EC50 values determined using GraphPad Prism v.5 (GraphPad software, La Jolla, CA, USA) with non-linear regression.

For data set [4] the following is noted: ref Davis et al., 2013; cited from earlier work.
In the next data set the test system is Trypanosoma brucei. To be noted: ref Zulfiqar et al., 2017; cited from earlier work.
In a further data set the test system is T. cruzi. The conditions noted are these: ref Zulfiqar et al., 2017; cited from earlier work.
Setting [5] is: MOI 0.6, FITC immunostaining, read-out: Screen inhibition at 10 μM (%) FITC.
Setting [6] is: MOI 0.6, mCherry detection, read-out: Screen inhibition at 10 μM (%) mCherry.

Molecules are shown by their SMILES. Converted amounts (≈) assume the structure as drawn. Like-named read-outs stand apart in the source and are kept apart here.

These results are taken from PMC6305398, “Red Fluorescent Chlamydia trachomatis Applied to Live Cell Imaging and Screening for Antibacterial Agents” (Frontiers in Microbiology, 2018).

As for `COC1=CC(=O)c2c(O)c3c(c(O)c2C1=O)C[C@](C)(O)C[C@@H]3O` [Compound 5, (1S,3S)-austrocortirubin], in data set [1] (setting [5]), the inhibition – broadly, the change of the read-out against control, counted positive when it falls – at 10 µM was 0%. Besides, the inhibition at 10 µM in data set [1] (setting [6]) was 13%. Besides, in [1] (screen at 10 μM), the “Inhibition of Chlamydia growth” value is recorded as “did not inhibit Chlamydia growth”. Moreover, in the data set “in vitro”, the viability (commonly a read-out of living cells in per cent, often relative to untreated cells) at 25 µM stood at 5 ± 0.5% and the viability at 50 µM was 5.5%. Moreover, the “Reduction of HeLa cell viability” value with HeLa cells (25 μM) is 95%. In addition, the “minimum inhibitory concentration (MIC)” value with Staphylococcus aureus was 100 µM (≈ 32 µg/mL). Moreover, in data set [2], the concentration for half-maximal inhibition (IC50) (commonly the point on the concentration scale where inhibition reaches its midpoint) was 1900 nM. Moreover, in the data set on mammalian cells (ref Choomuenwai et al., 2012, Wang et al., 2015), the “Toxic effects on mammalian cells” value is listed as “toxic effects”.
`C[C@H]1c2cccc(O)c2C(=O)C2=C(O)[C@]3(O)C(=O)C(C(N)=O)=C(O)[C@@H](N(C)C)[C@@H]3[C@@H](O)[C@@H]21` [doxycycline]: the EC50 (usually the concentration giving half of the maximal effect) amounted to 54.4 nM in the data set with wt C. trachomatis and 32.8 nM in data set [3].
Turning to `NCCc1c[nH]c2c1C(=O)C1=C(NC=CS1(=O)=O)C2=O` [Compound 10, thiaplakortone A], the inhibition at 10 µM was determined as 96% in data set [1] (setting [5]) and 100% in data set [1] (setting [6]). The viability at 25 µM in the data set “in vitro” came out at 5 ± 0.4%. In “in vitro”, the viability at 50 µM is 5 ± 0.5%. Also, the “Toxicity to HeLa cells (authors' call)” value in the data set with HeLa cells (non-toxic = viability not below 70% of vehicle control at 25 μM) was “toxic”. In addition, the “In vitro antimalarial effect, active concentrations” value in data set [4] is recorded as “low nanomolar concentrations”. For the same compound, the “Inhibition of Trypanosoma brucei, active concentrations” value in the data set on Trypanosoma brucei was “low micromolar concentrations”. The “Inhibition of T. cruzi, active concentrations” value in the data set on T. cruzi was “low micromolar concentrations”. In addition, in the data set on mammalian cells (ref Davis et al., 2013), the “Toxicity in mammalian cells” value is “moderate toxicity”.
